Laboratory results reported in ChEMBL document CHEMBL1201862, “PubChem BioAssay data set” (2004).
Active and inactive are the calls of the source.

How the values were obtained:
[1] = target: Heat shock 70 kDa protein 1A (Homo sapiens, UniProt P0DMV8); test: inhibition of Hsp70 binding activity – biochemical, fluorescence polarization, SAR follow-up (AID 1072)
[2] = target: Glyceraldehyde-3-phosphate dehydrogenase (Homo sapiens, UniProt P04406)
[3] = target: Heat shock cognate 71 kDa protein (Homo sapiens, UniProt P11142); test: In Vitro Hsc70 Dose Response Fluorescence Polarization Assay. [Related pubchem assays: 1072 ]
Heat shock cognate 71 kDa protein, sequence (P11142 whole entry): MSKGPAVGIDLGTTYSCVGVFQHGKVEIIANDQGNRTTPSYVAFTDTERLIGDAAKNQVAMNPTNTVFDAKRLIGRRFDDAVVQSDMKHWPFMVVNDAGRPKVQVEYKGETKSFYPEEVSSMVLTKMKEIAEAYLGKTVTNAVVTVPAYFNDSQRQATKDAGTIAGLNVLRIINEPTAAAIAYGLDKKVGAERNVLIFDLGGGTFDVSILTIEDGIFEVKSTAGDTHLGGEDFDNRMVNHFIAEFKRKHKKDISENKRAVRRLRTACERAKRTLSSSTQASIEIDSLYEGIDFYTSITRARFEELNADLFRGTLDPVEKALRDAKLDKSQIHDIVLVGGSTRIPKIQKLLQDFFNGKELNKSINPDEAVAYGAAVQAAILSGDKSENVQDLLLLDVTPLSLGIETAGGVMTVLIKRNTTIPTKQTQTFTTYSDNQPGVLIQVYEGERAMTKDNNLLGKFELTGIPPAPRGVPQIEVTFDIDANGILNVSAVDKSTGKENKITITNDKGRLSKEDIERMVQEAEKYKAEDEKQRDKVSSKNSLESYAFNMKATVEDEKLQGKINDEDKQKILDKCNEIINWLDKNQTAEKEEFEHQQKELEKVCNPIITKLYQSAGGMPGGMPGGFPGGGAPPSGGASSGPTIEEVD

[4] = target: Serine/threonine-protein phosphatase PP1-alpha catalytic subunit (Homo sapiens, UniProt P62136); test: inhibition of protein phosphatase 1 activity – biochemical, fluorescence, dose response (AID 2403);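 further: phosphatase turnover of OMFP into fluorescent 3-O-methylfluorescein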
Serine/threonine-protein phosphatase PP1-alpha catalytic subunit, sequence (P62136 whole entry): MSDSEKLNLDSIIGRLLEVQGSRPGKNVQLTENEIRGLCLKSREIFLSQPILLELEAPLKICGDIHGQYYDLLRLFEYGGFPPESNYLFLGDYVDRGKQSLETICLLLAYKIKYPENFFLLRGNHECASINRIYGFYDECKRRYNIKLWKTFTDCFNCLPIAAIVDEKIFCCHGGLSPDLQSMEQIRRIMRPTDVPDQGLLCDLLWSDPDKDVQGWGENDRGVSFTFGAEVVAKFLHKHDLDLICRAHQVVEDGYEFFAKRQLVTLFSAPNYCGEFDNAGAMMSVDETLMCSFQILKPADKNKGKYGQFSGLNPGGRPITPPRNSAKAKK

[5] = target: Serine/threonine-protein phosphatase (Homo sapiens, UniProt Q9BPW0); test: Counterscreen for inhibitors of PP1: fluorescence-based biochemical high throughput dose response assay to identify inhibitors of Protein Phosphatase 5 (PP5). [Related pubchem assays: 2034 (Summary (PP5 inhibitors)), 1987 (PP5 inhibitors in singlate), 2235 (PP1 inhibitors in singlate)]
Serine/threonine-protein phosphatase, sequence (Q9BPW0 whole entry): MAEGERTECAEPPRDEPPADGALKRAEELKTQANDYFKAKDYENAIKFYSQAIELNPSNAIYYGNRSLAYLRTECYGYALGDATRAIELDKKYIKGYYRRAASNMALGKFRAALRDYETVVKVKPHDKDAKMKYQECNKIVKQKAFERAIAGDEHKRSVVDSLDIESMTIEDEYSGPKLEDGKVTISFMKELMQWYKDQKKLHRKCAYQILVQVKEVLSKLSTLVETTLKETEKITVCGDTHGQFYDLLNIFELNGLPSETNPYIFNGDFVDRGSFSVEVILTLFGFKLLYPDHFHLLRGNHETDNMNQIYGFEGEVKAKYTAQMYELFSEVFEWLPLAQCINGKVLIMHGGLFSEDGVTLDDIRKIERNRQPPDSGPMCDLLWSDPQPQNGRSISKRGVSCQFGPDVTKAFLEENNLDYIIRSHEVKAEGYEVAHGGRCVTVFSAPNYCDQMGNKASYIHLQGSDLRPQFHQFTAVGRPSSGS

[6] = target: Induced myeloid leukemia cell differentiation protein Mcl-1 (Homo sapiens, UniProt Q07820); assay type: functional
Induced myeloid leukemia cell differentiation protein Mcl-1, sequence (Q07820 whole entry): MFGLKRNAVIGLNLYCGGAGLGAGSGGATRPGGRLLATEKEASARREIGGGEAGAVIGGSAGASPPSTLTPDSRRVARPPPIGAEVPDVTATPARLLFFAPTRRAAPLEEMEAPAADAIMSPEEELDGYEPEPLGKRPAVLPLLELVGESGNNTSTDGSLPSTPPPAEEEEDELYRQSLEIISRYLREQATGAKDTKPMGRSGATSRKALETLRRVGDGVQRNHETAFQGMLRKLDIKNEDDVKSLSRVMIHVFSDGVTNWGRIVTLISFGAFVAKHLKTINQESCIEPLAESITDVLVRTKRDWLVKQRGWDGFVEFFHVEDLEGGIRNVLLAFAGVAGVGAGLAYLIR

[7] = target: Transitional endoplasmic reticulum ATPase (Homo sapiens, UniProt P55072); test: p97 ATPase inhibitors, dose response, biochemical (AID 1534)
Transitional endoplasmic reticulum ATPase (Homo sapiens, UniProt P55072), sequence (P55072 whole entry): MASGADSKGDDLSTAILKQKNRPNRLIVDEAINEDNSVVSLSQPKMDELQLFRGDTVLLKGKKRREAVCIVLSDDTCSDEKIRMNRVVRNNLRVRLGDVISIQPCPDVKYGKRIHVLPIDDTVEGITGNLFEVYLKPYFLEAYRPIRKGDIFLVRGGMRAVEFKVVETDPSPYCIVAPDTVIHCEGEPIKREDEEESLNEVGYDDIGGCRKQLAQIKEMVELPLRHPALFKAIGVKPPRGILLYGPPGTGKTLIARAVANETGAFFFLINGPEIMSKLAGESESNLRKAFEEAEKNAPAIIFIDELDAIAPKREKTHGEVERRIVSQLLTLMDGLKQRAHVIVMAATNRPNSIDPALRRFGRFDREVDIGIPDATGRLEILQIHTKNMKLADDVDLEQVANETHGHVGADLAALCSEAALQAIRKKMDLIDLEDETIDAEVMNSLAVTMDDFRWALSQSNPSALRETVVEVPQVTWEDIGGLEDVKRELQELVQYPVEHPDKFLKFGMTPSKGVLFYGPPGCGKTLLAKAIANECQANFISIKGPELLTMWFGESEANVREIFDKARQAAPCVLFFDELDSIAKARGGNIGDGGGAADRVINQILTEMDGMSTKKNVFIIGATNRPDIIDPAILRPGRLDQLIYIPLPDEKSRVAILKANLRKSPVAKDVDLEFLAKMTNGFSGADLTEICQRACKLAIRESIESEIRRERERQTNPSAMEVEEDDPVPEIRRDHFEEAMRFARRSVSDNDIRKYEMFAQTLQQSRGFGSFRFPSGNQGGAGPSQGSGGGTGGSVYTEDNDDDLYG

[8] = target: Transitional endoplasmic reticulum ATPase (Homo sapiens, UniProt P55072, C522A); test: C522A mutant p97 ATPase inhibitors, dose response, counter-screen for p97 inhibitor project, biochemical, luminescence (AID 1544)
Transitional endoplasmic reticulum ATPase (Homo sapiens, UniProt P55072, C522A), sequence (P55072 2-806 C522A limits assumed): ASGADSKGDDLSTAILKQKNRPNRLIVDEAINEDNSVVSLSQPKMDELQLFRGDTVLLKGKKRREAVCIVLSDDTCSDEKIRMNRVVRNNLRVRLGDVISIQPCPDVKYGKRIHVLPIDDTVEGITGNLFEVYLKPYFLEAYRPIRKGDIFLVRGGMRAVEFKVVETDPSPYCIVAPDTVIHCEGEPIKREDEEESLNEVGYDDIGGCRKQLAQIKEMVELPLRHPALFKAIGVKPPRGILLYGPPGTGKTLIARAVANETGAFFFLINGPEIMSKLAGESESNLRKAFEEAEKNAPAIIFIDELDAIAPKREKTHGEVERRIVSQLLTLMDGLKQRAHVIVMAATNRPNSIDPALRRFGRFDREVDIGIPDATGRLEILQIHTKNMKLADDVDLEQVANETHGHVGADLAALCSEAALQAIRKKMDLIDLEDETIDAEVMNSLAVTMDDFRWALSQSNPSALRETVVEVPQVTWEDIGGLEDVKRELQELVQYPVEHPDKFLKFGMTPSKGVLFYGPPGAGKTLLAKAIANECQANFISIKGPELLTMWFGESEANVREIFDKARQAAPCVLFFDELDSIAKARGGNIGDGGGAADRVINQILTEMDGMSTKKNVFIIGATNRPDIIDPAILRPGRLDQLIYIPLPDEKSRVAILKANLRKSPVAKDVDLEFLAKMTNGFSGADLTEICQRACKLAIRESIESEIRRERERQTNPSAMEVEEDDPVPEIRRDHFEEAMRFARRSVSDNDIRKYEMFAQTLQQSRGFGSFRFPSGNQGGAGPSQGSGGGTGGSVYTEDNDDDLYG

[9] = HEK-293T viability loss after treatment – luminescence, T-cell screen hits, cytotoxicity control for TCR NF-kB inhibitor project, dose response (AID 489026); assay type: functional, cell-based;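 further: cells exposed to compound about 14 hours before the viability readout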
[10] = luciferase reporter signal suppression in cells – H4 neuroglioma cells, luminescence, dose response (AID 1990); assay type: functional, cell-based
[11] = alpha-synuclein stem-loop luciferase translation blockers – H4 neuroglioma cells, luminescence, confirmation (AID 1988); assay type: functional, cell-based
cells = assay type: functional, cell-based
[12] = Luminescence Cell-Based Dose Response HTS to Identify Inhibitors of 5'UTR Stem-Loop Driven Prion Protein mRNA Translation in H4 Neuroglioblastoma Cells. [Related pubchem assays: 1827 (Project Summary), 1813 (Primary HTS)]; assay type: functional
[13] = alpha-synuclein stem-loop translation blockers – luminescence, H4 neuroglioblastoma cells, dose confirmation, confirmation (AID 2454); assay type: functional, cell-based;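 further: H4 neuroglioblastoma cells carrying an alpha-synuclein 5'UTR luciferase reporter; potency for inhibition of the luciferase signal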
[14] = luciferase reporter signal reduction – luminescence, H4-C neuroglioblastoma cells, dose response (AID 2458); assay type: functional, cell-based;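 further: H4 neuroglioblastoma cells stably carrying a luciferase reporter gene fusion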
[15] = target: T1, Rac GTPase-activating protein 1 (Homo sapiens, UniProt Q9H0H5); test: blockers of MgcRacGAP-driven Rac1 GTP hydrolysis – biochemical, ADP Hunter fluorescence, primary and confirmatory, confirmation (AID 624330); assay type: functional
T1 sequence (Q9H0H5 whole entry): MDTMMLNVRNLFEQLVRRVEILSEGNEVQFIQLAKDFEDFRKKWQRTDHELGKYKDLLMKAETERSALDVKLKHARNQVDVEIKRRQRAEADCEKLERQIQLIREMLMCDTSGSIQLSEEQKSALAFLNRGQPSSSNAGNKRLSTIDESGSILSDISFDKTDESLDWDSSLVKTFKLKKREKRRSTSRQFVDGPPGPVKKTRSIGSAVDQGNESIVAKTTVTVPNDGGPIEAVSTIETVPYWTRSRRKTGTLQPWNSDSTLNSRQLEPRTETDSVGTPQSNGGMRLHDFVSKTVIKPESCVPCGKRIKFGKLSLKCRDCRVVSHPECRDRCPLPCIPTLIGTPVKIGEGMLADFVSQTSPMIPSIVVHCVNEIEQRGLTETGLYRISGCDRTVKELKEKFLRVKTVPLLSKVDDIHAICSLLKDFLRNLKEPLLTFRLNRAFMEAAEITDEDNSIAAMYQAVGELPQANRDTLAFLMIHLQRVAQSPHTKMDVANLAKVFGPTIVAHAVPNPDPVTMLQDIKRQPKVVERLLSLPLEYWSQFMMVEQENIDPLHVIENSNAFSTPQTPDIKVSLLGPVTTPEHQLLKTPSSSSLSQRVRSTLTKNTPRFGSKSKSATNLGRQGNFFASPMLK

Caspase-3 = target: T2, Caspase-3 (Homo sapiens, UniProt P42574); test: SAR Analysis of small molecule inhibitors of Sentrin-specific proteases (SENPs) using a Caspase-3 Selectivity assay. [Related pubchem assays (depositor defined):AID2540, AID2599, AID434973, AID489001]; assay type: functional
T2 sequence (P42574 whole entry): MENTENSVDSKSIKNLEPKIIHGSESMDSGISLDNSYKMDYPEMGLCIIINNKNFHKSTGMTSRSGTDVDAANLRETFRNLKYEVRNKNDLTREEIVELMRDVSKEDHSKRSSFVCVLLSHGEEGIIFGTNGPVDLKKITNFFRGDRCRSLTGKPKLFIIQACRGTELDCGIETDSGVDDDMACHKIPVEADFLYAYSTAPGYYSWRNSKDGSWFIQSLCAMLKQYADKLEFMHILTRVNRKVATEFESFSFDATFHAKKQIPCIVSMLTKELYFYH

[16] = blockade of melanocortin 4 receptor signaling – cell-based, plate reader, cherry pick, counter-screen for LGR2 antagonist project, dose response (AID 743444); assay type: functional;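 further: transfected HEK 293 cells stimulated with alpha-MSH peptide; potency of inhibitors of the alpha-MSH evoked signal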
[17] = toxicity toward HepG2 liver cells – cell-based, plate reader, cherry-pick, antagonist series, cytotoxicity control, dose response (AID 743416); assay type: functional
[18] = target: T3, Sentrin-specific protease 6 (Homo sapiens, UniProt Q9GZR1); test: SAR Analysis of small molecule inhibitors of Sentrin-specific protease 6 (SENP6) using a Luminescent assay. [Related pubchem assays (depositor defined):AID2582, AID2599]; assay type: functional
T3 sequence (Q9GZR1 whole entry): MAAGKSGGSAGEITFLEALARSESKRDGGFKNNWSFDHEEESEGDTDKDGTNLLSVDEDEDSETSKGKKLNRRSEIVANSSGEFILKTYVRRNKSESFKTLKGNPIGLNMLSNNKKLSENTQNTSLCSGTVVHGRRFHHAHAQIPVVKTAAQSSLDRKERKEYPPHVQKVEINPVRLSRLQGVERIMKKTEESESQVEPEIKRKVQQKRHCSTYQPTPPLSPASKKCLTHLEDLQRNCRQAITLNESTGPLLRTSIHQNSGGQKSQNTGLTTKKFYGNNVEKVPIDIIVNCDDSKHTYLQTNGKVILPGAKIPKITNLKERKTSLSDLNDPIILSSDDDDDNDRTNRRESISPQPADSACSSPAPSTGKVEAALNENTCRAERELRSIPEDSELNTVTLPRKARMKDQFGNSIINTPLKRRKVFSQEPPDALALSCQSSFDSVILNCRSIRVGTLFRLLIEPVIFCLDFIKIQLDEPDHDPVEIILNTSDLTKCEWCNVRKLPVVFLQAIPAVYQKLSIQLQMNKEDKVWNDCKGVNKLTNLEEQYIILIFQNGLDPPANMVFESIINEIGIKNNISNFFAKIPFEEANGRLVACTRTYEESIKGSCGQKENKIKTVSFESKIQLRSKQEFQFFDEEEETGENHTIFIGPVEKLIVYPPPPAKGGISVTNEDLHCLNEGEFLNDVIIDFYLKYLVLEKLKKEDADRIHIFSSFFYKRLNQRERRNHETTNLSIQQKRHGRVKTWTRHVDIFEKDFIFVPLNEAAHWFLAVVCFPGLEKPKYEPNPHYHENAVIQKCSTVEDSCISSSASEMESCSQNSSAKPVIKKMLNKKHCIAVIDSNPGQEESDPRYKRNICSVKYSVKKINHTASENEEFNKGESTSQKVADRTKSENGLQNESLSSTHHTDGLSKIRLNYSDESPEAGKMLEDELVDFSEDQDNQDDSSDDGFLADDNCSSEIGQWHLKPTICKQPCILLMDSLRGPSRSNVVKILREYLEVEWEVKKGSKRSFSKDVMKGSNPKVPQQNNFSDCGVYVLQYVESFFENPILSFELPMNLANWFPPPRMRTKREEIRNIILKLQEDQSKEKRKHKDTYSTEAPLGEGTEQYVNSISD

[19] = Luminescence-based counterscreen assay for KLF5 inhibitors: dose response cell-based high throughput screening assay to identify cytotoxic compounds using the IEC-6 intestinal epithelial cell line. [Related pubchem assays: 1700 (Primary screen.), 1834 (Confirmation screen.), 1858 (Summary AID.), 1905 (Counterscreen.)]; assay type: functional
[20] = blockers of bursicon-stimulated LGR2 cAMP reporter – cell-based, HEK293, CRE-luciferase reporter, cherry pick, set 2, dose response (AID 743343); assay type: functional;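 further: transfected cells were stimulated with diluted bursicon conditioned medium after compound addition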
[21] = target: T4, Sentrin-specific protease 7 (Homo sapiens, UniProt Q9BQF6); test: inhibition of human SENP7 cleavage activity – biochemical, luminescence, SAR follow-up (AID 504497); assay type: functional
T4 sequence (Q9BQF6 whole entry): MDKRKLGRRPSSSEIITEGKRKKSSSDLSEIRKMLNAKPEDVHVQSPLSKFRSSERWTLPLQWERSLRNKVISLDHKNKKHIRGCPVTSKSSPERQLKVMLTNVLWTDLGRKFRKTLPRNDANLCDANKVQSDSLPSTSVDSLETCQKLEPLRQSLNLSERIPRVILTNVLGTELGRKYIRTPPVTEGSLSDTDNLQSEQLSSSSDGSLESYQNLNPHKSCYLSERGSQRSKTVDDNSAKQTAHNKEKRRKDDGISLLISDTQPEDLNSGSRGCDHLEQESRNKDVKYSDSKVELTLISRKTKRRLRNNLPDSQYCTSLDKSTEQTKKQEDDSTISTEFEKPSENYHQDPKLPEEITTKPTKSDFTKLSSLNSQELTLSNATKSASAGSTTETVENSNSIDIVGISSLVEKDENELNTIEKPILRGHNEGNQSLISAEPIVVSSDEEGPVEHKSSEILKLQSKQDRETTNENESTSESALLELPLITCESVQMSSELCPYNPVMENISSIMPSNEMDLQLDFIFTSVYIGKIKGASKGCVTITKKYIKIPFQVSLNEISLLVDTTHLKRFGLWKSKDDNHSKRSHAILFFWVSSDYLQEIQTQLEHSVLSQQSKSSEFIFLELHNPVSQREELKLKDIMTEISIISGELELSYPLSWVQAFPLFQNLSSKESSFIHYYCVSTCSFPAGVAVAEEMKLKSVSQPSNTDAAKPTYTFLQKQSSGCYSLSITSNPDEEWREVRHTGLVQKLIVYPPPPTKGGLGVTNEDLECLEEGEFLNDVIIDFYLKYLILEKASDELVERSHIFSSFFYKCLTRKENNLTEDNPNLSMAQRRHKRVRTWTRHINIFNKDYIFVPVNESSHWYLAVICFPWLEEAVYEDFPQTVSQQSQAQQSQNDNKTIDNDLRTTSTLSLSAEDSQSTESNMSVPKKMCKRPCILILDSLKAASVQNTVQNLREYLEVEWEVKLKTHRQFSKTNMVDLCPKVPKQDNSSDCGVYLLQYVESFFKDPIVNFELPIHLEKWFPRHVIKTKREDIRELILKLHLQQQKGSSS

[22] = target: T5, Sentrin-specific protease 8 (Homo sapiens, UniProt Q96LD8); test: inhibition of human SENP8 cleavage activity – biochemical, luminescence, SAR follow-up (AID 504501); assay type: functional
T5 sequence (Q96LD8 whole entry): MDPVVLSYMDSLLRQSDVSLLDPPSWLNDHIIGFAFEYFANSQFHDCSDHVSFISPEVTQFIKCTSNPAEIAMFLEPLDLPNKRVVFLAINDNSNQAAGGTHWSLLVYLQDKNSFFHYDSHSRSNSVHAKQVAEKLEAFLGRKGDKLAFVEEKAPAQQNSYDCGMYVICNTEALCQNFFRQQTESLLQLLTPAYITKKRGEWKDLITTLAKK

Cytochrome P450 1A2 = target: T6, Cytochrome P450 1A2 (Homo sapiens, UniProt P05177);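 further: PubChem cytochrome P450 panel assay, CYP1A2 panel member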
T6 sequence (P05177 whole entry): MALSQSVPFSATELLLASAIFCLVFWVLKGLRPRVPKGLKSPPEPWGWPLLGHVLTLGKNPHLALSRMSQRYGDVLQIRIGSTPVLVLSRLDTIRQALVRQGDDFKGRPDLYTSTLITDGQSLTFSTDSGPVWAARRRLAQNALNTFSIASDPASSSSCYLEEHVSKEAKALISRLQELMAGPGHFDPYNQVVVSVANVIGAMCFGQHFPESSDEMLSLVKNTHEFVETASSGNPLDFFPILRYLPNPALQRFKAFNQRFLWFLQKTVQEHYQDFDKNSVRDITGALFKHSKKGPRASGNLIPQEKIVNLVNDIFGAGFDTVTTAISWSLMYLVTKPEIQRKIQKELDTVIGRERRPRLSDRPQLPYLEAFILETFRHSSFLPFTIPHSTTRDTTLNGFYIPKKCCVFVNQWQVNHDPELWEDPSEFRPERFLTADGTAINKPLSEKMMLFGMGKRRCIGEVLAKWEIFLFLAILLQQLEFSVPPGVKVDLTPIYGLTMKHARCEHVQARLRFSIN

Cytochrome P450 2D6 = Cytochrome P450 2D6 (Homo sapiens, UniProt P10635); test: qHTS Assay for Inhibitors and Substrates of Cytochrome P450 2D6. [Related pubchem assays: 410 ]; assay type: ADME; conditions: read-out: Potency
Cytochrome P450 2D6, sequence (P10635 whole entry): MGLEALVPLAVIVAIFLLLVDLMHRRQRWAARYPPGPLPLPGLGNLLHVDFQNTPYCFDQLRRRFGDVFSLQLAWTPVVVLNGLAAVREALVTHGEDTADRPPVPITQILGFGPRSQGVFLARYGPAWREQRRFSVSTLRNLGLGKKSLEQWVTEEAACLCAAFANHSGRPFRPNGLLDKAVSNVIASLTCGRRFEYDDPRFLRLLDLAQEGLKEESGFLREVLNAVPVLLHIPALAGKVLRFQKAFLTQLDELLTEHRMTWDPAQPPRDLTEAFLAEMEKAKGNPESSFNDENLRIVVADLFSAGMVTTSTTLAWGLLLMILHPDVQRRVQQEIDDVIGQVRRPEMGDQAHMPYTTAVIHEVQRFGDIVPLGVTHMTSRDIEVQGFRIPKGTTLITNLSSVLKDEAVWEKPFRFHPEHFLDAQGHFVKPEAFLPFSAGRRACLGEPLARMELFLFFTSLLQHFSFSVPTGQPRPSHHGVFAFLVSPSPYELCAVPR

Glyceraldehyde-3-phosphate dehydrogenase, sequence (P04406 whole entry): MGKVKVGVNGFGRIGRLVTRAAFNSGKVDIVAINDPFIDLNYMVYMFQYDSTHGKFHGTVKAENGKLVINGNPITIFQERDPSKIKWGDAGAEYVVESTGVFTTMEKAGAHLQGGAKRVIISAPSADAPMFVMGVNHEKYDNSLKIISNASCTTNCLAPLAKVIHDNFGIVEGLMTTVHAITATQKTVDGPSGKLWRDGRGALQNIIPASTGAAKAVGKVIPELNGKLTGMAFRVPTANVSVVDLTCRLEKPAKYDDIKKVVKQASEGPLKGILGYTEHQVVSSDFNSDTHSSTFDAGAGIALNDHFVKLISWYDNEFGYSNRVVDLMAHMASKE
Heat shock 70 kDa protein 1A, sequence (P0DMV8 whole entry): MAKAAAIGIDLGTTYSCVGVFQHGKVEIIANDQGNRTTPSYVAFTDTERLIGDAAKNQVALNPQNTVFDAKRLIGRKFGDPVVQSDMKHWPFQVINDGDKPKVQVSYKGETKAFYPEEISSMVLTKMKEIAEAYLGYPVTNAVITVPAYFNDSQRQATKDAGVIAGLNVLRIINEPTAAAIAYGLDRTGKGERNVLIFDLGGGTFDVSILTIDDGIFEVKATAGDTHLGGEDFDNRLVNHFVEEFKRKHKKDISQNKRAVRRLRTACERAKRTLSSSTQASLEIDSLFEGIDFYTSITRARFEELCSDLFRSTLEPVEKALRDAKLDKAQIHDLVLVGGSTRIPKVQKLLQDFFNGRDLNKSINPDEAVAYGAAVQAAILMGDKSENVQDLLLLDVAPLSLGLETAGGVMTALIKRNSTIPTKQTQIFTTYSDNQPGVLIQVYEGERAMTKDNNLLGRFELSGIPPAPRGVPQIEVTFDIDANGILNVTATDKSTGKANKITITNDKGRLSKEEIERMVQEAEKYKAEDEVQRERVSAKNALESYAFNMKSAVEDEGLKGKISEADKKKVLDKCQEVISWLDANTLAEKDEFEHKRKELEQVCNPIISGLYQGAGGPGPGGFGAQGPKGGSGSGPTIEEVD

## COc1ccc(NC(=O)C(=O)O)cc1
[1]
  IC50: > 100 µM (not active)
[2]
  IC50: > 100 µM (not active)
[3]
  IC50: > 100 µM (not active)

## COc1cnc(-c2ccccn2)nc1Oc1cccc(C(F)(F)F)c1
[4]
  IC50: 7.79 µM (active)
[5]
  IC50: > 67 µM (not active)

## Cc1cc2c(C(C)C)c(O)c(O)c(C=O)c2c(O)c1-c1c(C)cc2c(C(C)C)c(O)c(O)c(C=O)c2c1O
[6]
  IC50: 1.36 µM (active)
[7]
  IC50: 5.39 µM (active)
[8]
  IC50: 15.5 µM (not active)

## CCOc1cccc(-c2nnc3n2N=C(c2cc(OC)ccc2OC)CS3)c1
[9]
  IC50: > 80 µM (inactive)
[10]
  EC50: 10.5 µM (active)
[11]
  EC50: < 0.1 µM (active)
cells
  EC50: > 12 µM (not active)
[12]
  EC50: 13.1 µM (active)
[13]
  EC50: 9.53 µM (active)
[14]
  EC50: > 12 µM (not active)

## O=C(O)c1ccc(N/N=C/c2c[nH]c3ccccc23)cc1
[15]
  IC50: 47.7 µM (active)
Caspase-3
  IC50: 0.906 µM (active)
[16]
  AC50: 2.25 µM (active)
[17]
  AC50: > 52 µM (inactive)
[18]
  IC50: 0.869 µM (active)
[19]
  IC50: > 39.8 µM (not active)
[20]
  AC50: 2.15 µM (active)
[21]
  IC50: 0.985 µM (active)
[22]
  IC50: 0.794 µM (active)

## CCOC(=O)C1=C(C)NC(C)=C(C(=O)OC)[C@H]1c1cccc([N+](=O)[O-])c1 [(R)-NITRENDIPINE]
Cytochrome P450 1A2
  AC50: 31.6 µM (inconclusive)
Cytochrome P450 2D6
  AC50: 10 µM (inconclusive)
